Test results as given in patent US12628822B2, “Plant pathogen defence elicitors” (UNIVERSITÉ LIBRE DE BRUXELLES, priority 2020, dated 2026).

Test system: Arabidopsis transcriptome
Assay: cDNA microarray analysis of early transcriptomic changes in Arabidopsis seedlings
Type: in vivo, Arabidopsis thaliana
Settings: 100 μM, 1 h
Protocol: Arabidopsis thaliana Columbia (Col-0) was the accession used for all the experiments. Seeds were surface sterilised by subsequent treatment with 50% v/v Et-OH and 3% bleach solution in agitation for 5 and 10 min, respectively. Seeds were then washed three times with distilled water and stratified for 3 days at 4° C. in the dark. For qPCR analysis and microarray experiments, seeds were sown on square petri dishes ([…]) containing half strength Murashige and Skoog (MS) salt, 2.5 mM MES, 1% w/v sucrose and 0.8% w/v plant agar. The experiments were performed using 14-day old seedlings grown vertically in a controlled growth cabinet with short day conditions ( 8/16 h light/dark; 100 μmol photons m^−2 s^−1) at 22±0.5° C. Treatments were performed by applying 40-50 μl of fresh-prepared and filtered solution per seedling.
For RNA extraction, 14-day old leaves from ten independent plants were collected at the indicated time point after treatments, pooled and frozen in liquid nitrogen. Total RNA was extracted from 100 mg of ground-frozen samples using the Maxwell® LEV Plant RNA Kit (Promega, Madison, WI, USA) and the RNA integrity was determined through NanoDrop 2000 UV-Vis Spectrophotometer (Thermo Scientific, Loughborough, UK). First-strand cDNA was synthesized by using SOLIScript® RT cDNA synthesis MIX (Solis Biodyne, Tartu, Estonia) and qPCRs were performed using SYBR® Selected MasterMix 2× (Applied Biosystems, Thermo Fisher Scientific, Waltham, USA), following the manufacturers' protocols. The cycling conditions consisted of an initial 7 min at 95° C., followed by 40 two-step cycles at 95° C. for 5 s and at 60° C. for 30 s. Melting curve analysis was performed after cycle completion to validate amplicon identity. Relative expression levels were calculated following the standard curve-based method (Larionov et al. A standard curve based method for relative real time PCR data processing, BMC Bioinformatics. 2005, vol. 6, 1) by using ACTIN as reference. Gene-specific primers used in this work are indicated below.
RNA sample preparation for microarray hybridization was carried out as described in the Applied Biosystems™ GeneChip™ Whole Transcript (WT) PLUS Reagent Kit User Guide (Thermo Fisher Scientific, Waltham, MA, USA). Briefly, 200 ng of total RNA was used to generate double-stranded cDNA. Twelve μg of subsequently synthesized cRNA were purified and reverse transcribed into single-stranded (ss)cDNA, where unnatural dUTP residues were incorporated. Purified and labelled sscDNAs were hybridised to Arabidopsis Gene 1.0 ST arrays (Affymetrix, Santa Clara, CA, USA) and the fluorescent signals were measured with an Applied Biosystems™ GeneChip Scanner 3000 7 G System. Sample processing was performed at a Genomics Core Facility, “KFB—Center of Excellence for Fluorescent Bioanalytics” (Regensburg, Germany).
Normalised probe set signals in log2 scale were calculated by using the RMA algorithm. Average linkage hierarchical clusters of differentially expressed genes were generated by using Cluster 3.0 and visualized by java TreeView.
In Arabidopsis, the DAMPs-dependent elicitation of PTI is known to be accompanied by a deep immune gene transcriptional reprogramming. […] The transcriptomic analysis was carried out by using Arabidopsis 1.0 ST microarray chip (Affymetrix, Santa Clara, CA, USA) and Differentially Expressed Genes (DEGs) were selected using two criteria: log2 expression ratios ≥1.5-fold or […] and Student's t-test p-value≤0.05.

Compound: OC[C@H]1O[C@@H](O[C@H]2[C@H](O)[C@@H](O)[C@H](O)O[C@@H]2CO)[C@H](O)[C@@H](O)[C@@H]1O [Cellobiose, β-D-glucopyranosyl(1→4)D-glucopyranose]
- changes in expression, number of differentially expressed genes (14-day old Arabidopsis plants): 440 genes
- downregulated genes (14-day old Arabidopsis plants): 94 genes
- upregulated genes (14-day old Arabidopsis plants): 346 genes
- AT1G02360 putative chitinase gene expression (Col-0 plants, vs control): 1.03 fold change
- AT1G02920 glutathione S-transferase F7 gene expression (Col-0 plants, vs control): 1.10 fold change
- AT1G02930 glutathione S-transferase F6 gene expression (Col-0 plants, vs control): 1.18 fold change
- AT1G03220 aspartyl protease-like protein gene expression (Col-0 plants, vs control): 1.08 fold change
- AT1G07400 class I heat shock protein gene expression (Col-0 plants, vs control): 2.58 fold change
- AT1G11100 SNF2, helicase and zinc-finger domain-containing protein gene expression (Col-0 plants, vs control): 1.70 fold change
- AT1G13520 hypothetical protein gene expression (Col-0 plants, vs control): 2.05 fold change
- AT1G14540 peroxidase 4 gene expression (Col-0 plants, vs control): 1.22 fold change
- AT1G16110 wall associated kinase-like 6 gene expression (Col-0 plants, vs control): 1.46 fold change
- AT1G18382 gene expression (Col-0 plants, vs control): 1.39 fold change
- AT1G18570 myb domain protein 51 gene expression (Col-0 plants, vs control): 1.46 fold change
- AT1G19020 hypothetical protein gene expression (Col-0 plants, vs control): 1.68 fold change
- AT1G24145 hypothetical protein gene expression (Col-0 plants, vs control): 1.15 fold change
- AT1G27020 hypothetical protein gene expression (Col-0 plants, vs control): 1.06 fold change
- AT1G30700 FAD-binding Berberine family protein gene expression (Col-0 plants, vs control): 1.73 fold change
- AT1G30755 hypothetical protein gene expression (Col-0 plants, vs control): 1.08 fold change
- AT1G36622 hypothetical protein gene expression (Col-0 plants, vs control): 1.62 fold change
- AT1G36640 hypothetical protein gene expression (Col-0 plants, vs control): 1.27 fold change
- AT1G49000 hypothetical protein gene expression (Col-0 plants, vs control): 1.67 fold change
- AT1G51790 leucine-rich repeat protein kinase-like protein gene expression (Col-0 plants, vs control): 1.99 fold change
- AT1G51800 putative leucine-rich repeat protein kinase gene expression (Col-0 plants, vs control): 2.44 fold change
- AT1G51820 SIF2 gene expression (Col-0 plants, vs control): 6.99 fold change
- AT1G51850 Leucine-rich repeat protein kinase family protein gene expression (Col-0 plants, vs control): 4.14 fold change
- AT1G51890 probable LRR receptor-like protein kinase gene expression (Col-0 plants, vs control): 1.91 fold change
- AT1G51920 hypothetical protein gene expression (Col-0 plants, vs control): 1.55 fold change
- AT1G52200 PLAC8 family protein gene expression (Col-0 plants, vs control): 1.57 fold change
- AT1G53625 hypothetical protein gene expression (Col-0 plants, vs control): 1.55 fold change
- AT1G54050 CIII heat shock protein 17.4 gene expression (Col-0 plants, vs control): 1.36 fold change
- AT1G55450 S-adenosyl-L-methionine-dependent methyltransferases superfamily protein gene expression (Col-0 plants, vs control): 1.19 fold change
- AT1G59865 hypothetical protein gene expression (Col-0 plants, vs control): 2.57 fold change
- AT1G61360 G-type lectin S-receptor-like serine/threonine-protein kinase gene expression (Col-0 plants, vs control): 1.18 fold change
- AT1G61560 MLO-like protein 6 gene expression (Col-0 plants, vs control): 1.14 fold change
- AT1G64400 long-chain acyl-CoA synthetase gene expression (Col-0 plants, vs control): 1.18 fold change
- AT1G65845 hypothetical protein gene expression (Col-0 plants, vs control): 1.99 fold change
- AT1G74310 chaperone protein ClpB1 gene expression (Col-0 plants, vs control): 2.87 fold change
- AT1G79680 wall-associated receptor kinase-like 10 gene expression (Col-0 plants, vs control): 1.62 fold change
- AT2G02010 glutamate decarboxylase 4 gene expression (Col-0 plants, vs control): 1.11 fold change
- AT2G15220 basic secretory protein family protein gene expression (Col-0 plants, vs control): 1.08 fold change
- AT2G17740 cysteine/histidine-rich C1 domain-containing protein gene expression (Col-0 plants, vs control): 1.04 fold change
- AT2G19190 FLG22-induced receptor-like kinase 1 gene expression (Col-0 plants, vs control): 1.38 fold change
- AT2G22880 VQ motif-containing protein gene expression (Col-0 plants, vs control): 1.35 fold change
- AT2G26150 heat stress transcription factor A-2 gene expression (Col-0 plants, vs control): 2.19 fold change
- AT2G26560 phospholipase A 2A gene expression (Col-0 plants, vs control): 2.02 fold change
- AT2G27660 cysteine/histidine-rich C1 domain-containing protein gene expression (Col-0 plants, vs control): 1.63 fold change
- AT2G29500 HSP20 family protein gene expression (Col-0 plants, vs control): 3.11 fold change
- AT2G36220 hypothetical protein gene expression (Col-0 plants, vs control): 1.44 fold change
- AT2G36690 2-oxoglutarate (2OG) and Fe(II)-dependent oxygenase superfamily protein gene expression (Col-0 plants, vs control): 1.99 fold change
- AT2G38870 PR-6 proteinase inhibitor family protein gene expression (Col-0 plants, vs control): 1.27 fold change
- AT2G39200 protein MILDEW RESISTANCE LOCUS O 12 gene expression (Col-0 plants, vs control): 2.09 fold change
- AT2G39210 major facilitator protein gene expression (Col-0 plants, vs control): 1.67 fold change
- AT2G39518 hypothetical protein gene expression (Col-0 plants, vs control): 2.22 fold change
- AT2G43620 chitinase family protein gene expression (Col-0 plants, vs control): 2.15 fold change
- AT2G44490 PEN2 gene expression (Col-0 plants, vs control): 1.20 fold change
- AT2G46240 BCL-2-associated athanogene 6 gene expression (Col-0 plants, vs control): 2.00 fold change
- AT3G08970 J domain protein ATERDJ3A gene expression (Col-0 plants, vs control): 2.46 fold change
- AT3G09350 protein Fes1A gene expression (Col-0 plants, vs control): 2.18 fold change
- AT3G12580 heat shock protein 70-4 gene expression (Col-0 plants, vs control): 3.24 fold change
- AT3G12910 no apical meristem domain-containing transcriptional regulator gene expression (Col-0 plants, vs control): 1.36 fold change
- AT3G14200 chaperone DnaJ-domain containing protein gene expression (Col-0 plants, vs control): 2.55 fold change
- AT3G15500 ATAF-like NAC-domain transcription factor gene expression (Col-0 plants, vs control): 1.20 fold change
- AT3G16030 G-type lectin S-receptor-like serine/threonine-protein kinase CES101 gene expression (Col-0 plants, vs control): 1.47 fold change
- AT3G22060 Receptor-like protein kinase-related family protein gene expression (Col-0 plants, vs control): 1.31 fold change
- AT3G24500 multiprotein-bridging factor 1c gene expression (Col-0 plants, vs control): 1.75 fold change
- AT3G26210 cytochrome P450 71B23 gene expression (Col-0 plants, vs control): 1.35 fold change
